According to patent publication US12370165B2, “Hunger suppression” (TDeltaS Limited, priority 2017, dated 2025):
One block for each molecule: values may come before it.

Tests used:
[1] = General findings on esters: circulating (R)-3-hydroxybutyrate, gut uptake; type: in vivo
plasma ghrelin = experiment: General finding on esters: plasma ghrelin levels; details: in vivo
appetite = details: rats; cited from earlier work
hunger = experiment: Visual-analogue-scale (VAS) for hunger, desire to eat and fullness after study drink; type: in vivo, human
Protocol: A randomised, single-blinded, cross-over study examined the effects of isocaloric ketone ester (KE) and dextrose drinks hunger in healthy, normal-weight participants (n=15) (FIG. 1A). An external Research Ethics Committee (14/LO/0288) approved the study, which was conducted at the University of Oxford in accordance with the Declaration of Helsinki. Participants were healthy, aged 21-42 and with no history of major illness (Anthropometric characteristics in Table 1). Participants provided written informed consent prior to inclusion. Drink order was randomised prior to commencement. Participants refrained from alcohol and caffeine for 24 h prior to each visit and consumed an identical evening meal, at the same time before each visit. Testing started at 0800 h following an overnight (>8 h) fast, with a minimum of 72 h between visits. Venous blood samples (2 ml) were obtained using a 22G catheter inserted into an antecubital vein. Fasting blood samples were collected prior to all interventions and then at regular intervals for 4 h following the study drink. At identical time points, participants completed a validated three-measure visual-analogue-scale (VAS) to assess ‘hunger,’ ‘desire to eat and’ fullness' (Stubbs et al., “The use of visual analogue scales to assess motivation to eat in human subjects: a review of their reliability and validity with an evaluation of new hand-held computerized systems for temporal tracking of hunger ratings”, Br J Nutr, 2000, 84(4):405-15). Each drink contained 1.9 kCal/kg of pHB (as ketone ester) or dextrose. Drinks were diluted to 500 ml with a commercially available citrus-flavoured drink containing 65 kCal ([…] of carbohydrate) (Glaceau, UK). The dextrose drink was taste-matched using a bitterness additive (Symrise, Holzminden, Germany). Prism6™ software was used for statistical analysis. VAS scores were measured as a distance (mm), and normalised by taking the baseline distance for each visit as ‘0’. Values are means±SEM with significance at p<0.05. […] Correlations were calculated using a two-tailed Pearson's test with a 95% confidence interval.

plasma glucose = experiment: Plasma glucose after study drink (commercial analyzer); type: in vivo, human
Protocol: (§1) A randomised, single-blinded, cross-over study examined the effects of isocaloric ketone ester (KE) and dextrose drinks hunger in healthy, normal-weight participants (n=15) (FIG. 1A). An external Research Ethics Committee (14/LO/0288) approved the study, which was conducted at the University of Oxford in accordance with the Declaration of Helsinki. Participants were healthy, aged 21-42 and with no history of major illness (Anthropometric characteristics in Table 1). Participants provided written informed consent prior to inclusion. Drink order was randomised prior to commencement. Participants refrained from alcohol and caffeine for 24 h prior to each visit and consumed an identical evening meal, at the same time before each visit. Testing started at 0800 h following an overnight (>8 h) fast, with a minimum of 72 h between visits. Venous blood samples (2 ml) were obtained using a 22G catheter inserted into an antecubital vein. […] Blood pHB was measured using a handheld monitor and reagent strips (Precision Xtra, Abbott Diabetes Care, UK). Blood samples were stored on ice, centrifuged and duplicate plasma aliquots stored at −80° C. and analysed within 6 weeks. Plasma glucose was assayed using a commercial analyzer (ABX Pentra, France), whereas insulin, total ghrelin, GLP-1 and PYY were measured using commercially available ELISA assays (Mercodia, Sweden and Merck Millipore, Germany).

insulin = experiment: Plasma insulin after study drink (ELISA); type: in vivo, human
Protocol: as §1

total ghrelin = experiment: Plasma total ghrelin after study drink (ELISA); type: in vivo, human
Protocol: A randomised, single-blinded, cross-over study examined the effects of isocaloric ketone ester (KE) and dextrose drinks hunger in healthy, normal-weight participants (n=15) (FIG. 1A). An external Research Ethics Committee (14/LO/0288) approved the study, which was conducted at the University of Oxford in accordance with the Declaration of Helsinki. Participants were healthy, aged 21-42 and with no history of major illness (Anthropometric characteristics in Table 1). Participants provided written informed consent prior to inclusion. Drink order was randomised prior to commencement. Participants refrained from alcohol and caffeine for 24 h prior to each visit and consumed an identical evening meal, at the same time before each visit. Testing started at 0800 h following an overnight (>8 h) fast, with a minimum of 72 h between visits. Venous blood samples (2 ml) were obtained using a 22G catheter inserted into an antecubital vein. Fasting blood samples were collected prior to all interventions and then at regular intervals for 4 h following the study drink. At identical time points, participants completed a validated three-measure visual-analogue-scale (VAS) to assess ‘hunger,’ ‘desire to eat and’ fullness' (Stubbs et al., “The use of visual analogue scales to assess motivation to eat in human subjects: a review of their reliability and validity with an evaluation of new hand-held computerized systems for temporal tracking of hunger ratings”, Br J Nutr, 2000, 84(4):405-15). Each drink contained 1.9 kCal/kg of pHB (as ketone ester) or dextrose. Drinks were diluted to 500 ml with a commercially available citrus-flavoured drink containing 65 kCal (5 g of carbohydrate) (Glaceau, UK). The dextrose drink was taste-matched using a bitterness additive (Symrise, Holzminden, Germany). Blood pHB was measured using a handheld monitor and reagent strips (Precision Xtra, Abbott Diabetes Care, UK). Blood samples were stored on ice, centrifuged and duplicate plasma aliquots stored at −80° C. and analysed within 6 weeks. Plasma glucose was assayed using a commercial analyzer (ABX Pentra, France), whereas insulin, total ghrelin, GLP-1 and PYY were measured using commercially available ELISA assays (Mercodia, Sweden and Merck Millipore, Germany).

GLP-1 = experiment: Plasma GLP-1 after study drink (ELISA); type: in vivo, human; details: after 30 min
Protocol: as §1

PYY = experiment: Plasma PYY after study drink (ELISA); type: in vivo, human; details: after 30 min
Protocol: as §1

circulating levels of (R)-3-hydroxybutyrate in the blood ([1]; in vivo): high circulating levels | uptake in the gut ([1]; in vivo): surprisingly high level of uptake
Molecule: C[C@@H](O)CCOC(=O)C[C@@H](C)O [(R)-3-hydroxybutyrate (R)-1,3-butanediol monoester]
plasma ghrelin levels (plasma ghrelin): reduce plasma ghrelin levels

uptake in the gut ([1]; in vivo): surprisingly high level of uptake | circulating levels of (R)-3-hydroxybutyrate in the blood ([1]; upon consumption of a drink): high circulating levels
Molecule: (R)-3-hydroxybutyrate-glycerol partial ester
plasma ghrelin levels (plasma ghrelin): reduce plasma ghrelin levels

Molecule: CC(O)CCOC(=O)CC(C)O (centres unmarked) [3-hydroxybutyl 3-hydroxybutyrate]
appetite (appetite): suppress appetite

Molecule: C[C@@H](O)CCOC(=O)C[C@@H](C)O [KE]
Perceived 'Fullness' (hunger; KE vs dextrose drinks): the same | 'desire to eat' lowered compared to dextrose drinks (hunger; for 1.5 to 4 h after drink): −50% | perception of 'hunger' lowered compared to dextrose drinks (hunger; for 1.5 to 4 h after drink): −50% | Plasma glucose levels (plasma glucose; 30 min after drink, mean±SEM): 5.1 ± 0.2 mM | plasma glucose, difference between KE and dextrose drinks (plasma glucose; after 90 min): no significant differences | Plasma insulin levels (insulin; 30 min after drink, mean±SEM): 13±2 mU/L | plasma insulin, difference between KE and dextrose drinks (insulin; after 90 min): no significant differences | plasma ghrelin (total ghrelin; 1 h following drink): 320 pg/mL | Total ghrelin AUC lower with KE vs. dextrose (total ghrelin; 4 h after drink): 17% | Total ghrelin AUC (total ghrelin; 4 h after drink, mean±SEM): 86 ± 6 ng·min/mL | plasma ghrelin lower than after dextrose (total ghrelin; between 2-4 h post-drink): > 100 pg/mL | plasma GLP-1 levels (GLP-1): 5 pg/mL | plasma PYY levels (PYY): 57 pg/mL
